# Measurements from patent US8617562B2, “FOXM1 peptides and immunogenic compositions containing them” (OncoTherapy Science, Inc., priority 2009, dated 2013).
# Entries after “also recorded” stand apart in the source; their conditions may differ. Square brackets hold non-standard residues; d marks the D form. Ends that are not written are not given here.
# Tests used:
# [1] = tested on: peptide-pulsed TISI cells; assay: IFN-gamma ELISA assay of CTL clones established by limiting dilution; format: cell-based, human; settings: peptide-pulsed target cells vs not pulsed
# Description: The dilutions were made to have 0.3, 1, and 3 CTLs/well in 96 round-bottomed micro titer plate (Nalge Nunc International). CTLs were cultured with 1×10^4 cells/well of 2 kinds of human B-lymphoblastoid cell lines, 30 ng/ml of anti-CD3 antibody, and 125 U/ml of IL-2 in a total of […] of AIM-V Medium containing 5% AS. 50 micro-1/well of IL-2 were added to the medium 10 days later so to reach a final concentration of 125 U/ml IL-2. CTL activity was tested on the 14th day, and CTL clones were expanded using the same method as described above (Uchida N et al., Clin Cancer Res 2004 Dec. 15, 10(24): 8577-86; Suda T et al., Cancer Sci 2006 May, 97(5): 411-9; Watanabe T et al., Cancer Sci 2005 August, 96(8): 498-506).
# (§1) Specifically, peptide-pulsed TISI (1×10^4 cells/well) was prepared as stimulator cells. Cultured cells in 48 wells were used as responder cells. IFN-gamma ELISPOT assay and IFN-gamma ELISA assay were performed under manufacture procedure.
# (§2) CTL activity of those CTL lines was determined by IFN-gamma ELISA assay (FIGS. 2a-d). […] Furthermore, CTL clones were established by limiting dilution from the CTL lines, and IFN-gamma production from CTL clones against target cells pulsed peptide was determined by IFN-gamma ELISA assay.
# [2] = tested on: peptide-pulsed TISI cells; assay: IFN-gamma ELISPOT assay on CTLs induced with FOXM1 peptides; format: cell-based, human; settings: target cells pulsed with the peptide vs not pulsed, day 21 after 3rd stimulation
# Excerpt: Monocyte-derived dendritic cells (DCs) were used as antigen-presenting cells to induce cytotoxic T lymphocyte (CTL) responses against peptides presented on human leukocyte antigen (HLA). DCs were generated in vitro as described elsewhere (Nakahara S et al., Cancer Res 2003 Jul. 15, 63(14): 4112-8). Specifically, peripheral blood mononuclear cells (PBMCs) isolated from a normal volunteer (HLA-A*2402 positive) by Ficoll-Plaque (Pharmacia) solution were separated by adherence to a plastic tissue culture dish (Becton Dickinson) so as to enrich them as the monocyte fraction. The monocyte-enriched population was cultured in the presence of 1000 U/ml of granulocyte-macrophage colony-stimulating factor (R&D System) and 1000 U/ml of interleukin (IL)-4 (R&D System) in AIM-V Medium (Invitrogen) containing 2% heat-inactivated autologous serum (AS). After 7 days of culture, the cytokine-induced DCs were pulsed with 20 micro-g/ml of each of the synthesized peptides in the presence of 3 micro-g/ml of beta2-microglobulin for 3 hrs at 37 degrees C. in AIM-V Medium. The generated cells appeared to express DC-associated molecules, such as CD80, CD83, CD86 and HLA class II, on their cell surfaces (data not shown). These peptide-pulsed DCs were then inactivated by X-irradiation (20 Gy) and mixed at a 1:20 ratio with autologous CD8+ T cells, obtained by positive selection with CD8 Positive Isolation Kit (Dynal). These cultures were set up in 48-well plates (Corning); each well contained 1.5×10^4 peptide-pulsed DCs, 3×10^5 CD8+ T cells and 10 ng/ml of IL-7 (R&D System) in 0.5 ml of AIM-V/2% AS medium. Three days later, these cultures were supplemented with IL-2 (CHIRON) to a final concentration of 20 IU/ml. On days 7 and 14, the T cells were further stimulated with the autologous peptide-pulsed DCs. The DCs were prepared each time by the same way described above. CTLs were tested against peptide-pulsed TISI cells after the 3rd round of peptide stimulation on day 21 (Tanaka H et al., Br J Cancer 2001 Jan. 5, 84(1): 94-9; Umano Y et al., Br J Cancer 2001 Apr. 20, 84(8): 1052-7; Uchida N et al., Clin Cancer Res 2004 Dec. 15, 10(24): 8577-86; Watanabe T et al., Cancer Sci 2005 August, 96(8): 498-506; Suda T et al., Cancer Sci 2006 May, 97(5): 411-9).
# as §1
# CTLs for those peptides derived from FOXM1 were generated according to the protocols as described in “Materials and Methods”.
# [3] = tested on: COS7 cells transfected with FOXM1 and HLA-A*2402; assay: Specific CTL activity against target cells exogenously expressing FOXM1 and HLA-A*2402; format: cell-based, African green monkey
# Excerpt: The cDNA encoding an open reading frame of target genes or HLA-A*2402 was amplified by PCR. The PCR-amplified products were cloned into pCAGGS vector. The plasmids were transfected into COST, which is the target genes and HLA-A24 negative cell line, using lipofectamine 2000 (Invitrogen) according to the manufacturer's recommended procedures. After 2 days from transfection, the transfected cells were harvested with versene (Invitrogen) and used as the target cells (5×10^4 cells/well) for CTL activity assay.
# The established CTL lines and clones raised against these peptides were examined for their ability to recognize target cells that endogenously express FOXM1 and HLA-A*2402 gene. […] COS7 cells transfected with either full length of FOXM1 genes or HLA-A*2402 were prepared as controls.
# [4] = tested on: peptide-pulsed TISI cells; assay: IFN-gamma ELISA assay of CTL lines stimulated with FOXM1 peptides; format: cell-based, human; settings: target cells pulsed with corresponding peptide vs without peptide pulse
# Description: CTLs were expanded in culture using the method similar to the one described by Riddell et al. (Walter E A et al., N Engl J Med 1995 Oct. 19, 333(16): 1038-44; Riddell S R et al., Nat Med 1996 February, 2(2): 216-23). A total of 5×10^4 CTLs were suspended in 25 ml of AIM-V/5% AS medium with 2 kinds of human B-lymphoblastoid cell lines, inactivated by Mitomycin C, in the presence of 40 ng/ml of anti-CD3 monoclonal antibody (Pharmingen). One day after initiating the cultures, 120 IU/ml of IL-2 were added to the cultures. The cultures were fed with fresh AIM-V/5% AS medium containing 30 IU/ml of IL-2 on days 5, 8 and 11 (Tanaka H et al., Br J Cancer 2001 Jan. 5, 84(1): 94-9; Umano Y et al., Br J Cancer 2001 Apr. 20, 84(8): 1052-7; Uchida N et al., Clin Cancer Res 2004 Dec. 15, 10(24): 8577-86; Watanabe T et al., Cancer Sci 2005 August, 96(8): 498-506; Suda T et al., Cancer Sci 2006 May, 97(5): 411-9).
# as §1, §2
Substance,IFN-gamma production of peptide-induced CTLs compared with the control [2],IFN-gamma production of CTL lines compared with the control [4],other results
IYTWIEDHF [SEQ ID NO: 2],potent IFN-gamma production,potent IFN-gamma production,"IFN-gamma production of CTL clones compared with the control ([1]; listed as FOXM1-A24-9-262): potent IFN-gamma production; specific CTL activity against COS7 cells transfected with both FOXM1 and HLA-A*2402 ([3]; CTLs raised by the peptide as effector cells, listed as FOXM1-A24-9-262): potent CTL activity; also recorded: specific CTL activity; specific CTL activity against control COS7 cells expressing either HLA-A*2402 or FOXM1 ([3]; controls transfected with only one gene): no significant specific CTL activity"
KFPAGIKII [SEQ ID NO: 8],potent IFN-gamma production,–,–
LTLDqVFKPL (LTLD[code q]VFKPL) [SEQ ID NO: 25],potent IFN-gamma production,potent IFN-gamma production,–
PYSYmAMIQF (PYSY[code m]AMIQF) [SEQ ID NO: 31],potent IFN-gamma production,potent IFN-gamma production,IFN-gamma production of CTL clones compared with the control ([1]; listed as FOXM1-A24-10-238): potent IFN-gamma production
RNMTIKTEL [SEQ ID NO: 7],potent IFN-gamma production,–,–
RYLTLDQVF [SEQ ID NO: 1],–,–,IFN-gamma production of peptide-induced CTLs compared with the control ([2]; listed as FOXM1-A24-9-316): not shown specific IFN-gamma production; also recorded: typical negative data of CTL response
SYMAmIQFAI (SYMA[code m]IQFAI) [SEQ ID NO: 16],potent IFN-gamma production,potent IFN-gamma production,IFN-gamma production of CTL clones compared with the control ([1]; listed as FOXM1-A24-10-240): potent IFN-gamma production
VLQPsVKVPL (VLQP[code s]VKVPL) [SEQ ID NO: 30],potent IFN-gamma production,–,–
